In one assay the test system is VCap prostate cancer. The experiment in a line: Non-castrated VCap prostate cancer model. It is filed as in vivo, male CB17/Scid mice. The conditions noted are these: Group 7: Abiraterone 350 mg/kg p.o. QD * 26 days. The protocol: Compound (I), enzalutamide, and abiraterone were tested in non-castrated VCap prostate cancer model in male CB17/Scid mice.
All treatment groups reduced mean tumor volume.

The subject of the next assay is xBT474 breast tumor. Nature of the assay: xBT474 breast tumor model (ER-negative/HER2-positive). The conditions noted are these: Group 3: Tucatinib 25 mg/kg PO QD*28 days.
Another assay deals with xMDA-MB-361 breast tumor. The experiment in a line: xMDA-MB-361 breast tumor model (ER-positive/HER2-positive). The conditions noted are these: Group 3: Tucatinib 60 mg/kg PO QD*42 days. It is filed as in vivo, female BALB/c nude mice. The protocol: Trastuzumab, tucatinib, Compound (I), and fulvestrant were tested in a xMDA-MB-361 breast tumor model (ER-positive/HER2-positive) on female BALB/c nude mice.

Two compounds from patent US20230000876A1, “TREATING CANCERS WITH A CYCLIN-DEPENDENT KINASE INHIBITOR” (Nuvation Bio Inc., priority 2021, published 2023) can be followed below.

For `C[C@]12CC[C@H](O)CC1=CC[C@@H]1[C@@H]2CC[C@]2(C)C(c3cccnc3)=CC[C@@H]12` [Abiraterone, abiraterone, reference compound], the “Tumor volume (mean ± SEM)” value in the assay with VCap prostate cancer (Day 0) turned out to be 171.7 ± 5.9 mm^3; in the assay on VCap prostate cancer (Day 4), 278 ± 22.9 mm^3; in the assay on VCap prostate cancer (Day 7), 365.9 ± 35.9 mm^3; in the assay on VCap prostate cancer (Day 11) it was 582.6 ± 43.3 mm^3; with VCap prostate cancer (Day 14), 762.2 ± 73.7 mm^3; in the assay on VCap prostate cancer (Day 18), 985.6 ± 86.7 mm^3. For the same compound, the entries for the “Tumor volume (mean ± SEM)” value in the assay with VCap prostate cancer (Day 21) and in the assay on VCap prostate cancer (Day 25) were 1056.1 ± 83.2 mm^3 and 1184.9 ± 82.6 mm^3, respectively.
With `Cc1cc(Nc2ncnc3ccc(NC4=NC(C)(C)CO4)cc23)ccc1Oc1ccn2ncnc2c1` [Tucatinib], the “Tumor volume (mean ± SEM)” value with xBT474 breast tumor (Day 0) stood at 146 ± 10 mm^3; with xBT474 breast tumor (Day 4) it was 177 ± 11 mm^3; with xBT474 breast tumor (Day 7), 199 ± 19 mm^3; in the assay on xBT474 breast tumor (Day 11), 168 ± 16 mm^3; in the assay with xBT474 breast tumor (Day 14) it was 169 ± 15 mm^3; in the assay with xBT474 breast tumor (Day 18), 234 ± 28 mm^3. The “Tumor volume (mean ± SEM)” value amounted to 288 ± 35 mm^3 in the assay on xBT474 breast tumor (Day 21); 341 ± 47 mm^3 in the assay with xBT474 breast tumor (Day 25); 397 ± 68 mm^3 in the assay on xBT474 breast tumor (Day 28); 406 ± 96 mm^3 in the assay with xBT474 breast tumor (Day 32); 488 ± 112 mm^3 in the assay with xBT474 breast tumor (Day 35); 420 ± 91 mm^3 in the assay on xBT474 breast tumor (Day 39). Further, the “Tumor volume (mean ± SEM)” value is on record as 431 ± 89 mm^3 in the assay with xBT474 breast tumor (Day 42); 421 ± 81 mm^3 in the assay on xBT474 breast tumor (Day 46); 157 ± 11 mm^3 with xMDA-MB-361 breast tumor (Day 0); 148 ± 11 mm^3 with xMDA-MB-361 breast tumor (Day 3); 156 ± 20 mm^3 in the assay with xMDA-MB-361 breast tumor (Day 7); 219 ± 30 mm^3 in the assay on xMDA-MB-361 breast tumor (Day 10). Also, the “Tumor volume (mean ± SEM)” value is recorded as 408 ± 59 mm^3 with xMDA-MB-361 breast tumor (Day 14); 658 ± 112 mm^3 with xMDA-MB-361 breast tumor (Day 17); 970 ± 206 mm^3 with xMDA-MB-361 breast tumor (Day 21); 1185 ± 222 mm^3 with xMDA-MB-361 breast tumor (Day 24); 1496 ± 250 mm^3 with xMDA-MB-361 breast tumor (Day 28); 1707 ± 309 mm^3 in the assay on xMDA-MB-361 breast tumor (Day 31). The “Tumor volume (mean ± SEM)” value with xMDA-MB-361 breast tumor (Day 35) is given as 1580 ± 240 mm^3; in the assay with xMDA-MB-361 breast tumor (Day 38) it was 1675 ± 283 mm^3; in the assay on xMDA-MB-361 breast tumor (Day 42) it was 1670 ± 344 mm^3.
